Source: ChEMBL document CHEMBL1153926, “Evaluation of synthetic sphingolipid analogs as ligands for peroxisome proliferator-activated receptors” (Bioorg Med Chem Lett, 2009)
The source made the active and inactive calls. The rule behind the calls is not given here.

Key:
Type in all cases: cell-based
[1] = target: T1, Peroxisome proliferator-activated receptor alpha (Mus musculus) (UniProt P23204); test: Transactivation of mouse recombinant PPARalpha expressed in mouse NIH3T3 cells at 5 uM by PPRE activation based dual luciferase reporter gene assay relative to control
T1 sequence (whole entry): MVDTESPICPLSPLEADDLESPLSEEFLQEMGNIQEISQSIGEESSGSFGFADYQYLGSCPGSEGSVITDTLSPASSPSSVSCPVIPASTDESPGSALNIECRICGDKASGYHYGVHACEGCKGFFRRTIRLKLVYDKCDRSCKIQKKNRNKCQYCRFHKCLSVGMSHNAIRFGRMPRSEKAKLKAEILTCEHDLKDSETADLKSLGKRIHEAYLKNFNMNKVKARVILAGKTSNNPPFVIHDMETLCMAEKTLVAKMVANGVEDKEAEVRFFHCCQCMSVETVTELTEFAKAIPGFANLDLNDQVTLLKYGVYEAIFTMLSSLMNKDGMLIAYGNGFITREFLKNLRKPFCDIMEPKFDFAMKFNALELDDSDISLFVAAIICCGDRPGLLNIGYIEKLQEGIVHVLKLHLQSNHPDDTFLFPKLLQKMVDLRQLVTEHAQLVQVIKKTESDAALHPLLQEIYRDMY

[2] = target: T1, Peroxisome proliferator-activated receptor alpha (Mus musculus); test: Transactivation of mouse recombinant PPARalpha expressed in mouse NIH3T3 cells at 0.1 uM to 10 uM by PPRE activation based dual luciferase reporter gene assay relative to control
[3] = target: T2, Peroxisome proliferator-activated receptor delta (Mus musculus) (UniProt P35396); test: Transactivation of mouse recombinant PPARbeta expressed in mouse NIH3T3 cells by PPRE activation based dual luciferase reporter gene assay relative to control
T2 sequence (whole entry): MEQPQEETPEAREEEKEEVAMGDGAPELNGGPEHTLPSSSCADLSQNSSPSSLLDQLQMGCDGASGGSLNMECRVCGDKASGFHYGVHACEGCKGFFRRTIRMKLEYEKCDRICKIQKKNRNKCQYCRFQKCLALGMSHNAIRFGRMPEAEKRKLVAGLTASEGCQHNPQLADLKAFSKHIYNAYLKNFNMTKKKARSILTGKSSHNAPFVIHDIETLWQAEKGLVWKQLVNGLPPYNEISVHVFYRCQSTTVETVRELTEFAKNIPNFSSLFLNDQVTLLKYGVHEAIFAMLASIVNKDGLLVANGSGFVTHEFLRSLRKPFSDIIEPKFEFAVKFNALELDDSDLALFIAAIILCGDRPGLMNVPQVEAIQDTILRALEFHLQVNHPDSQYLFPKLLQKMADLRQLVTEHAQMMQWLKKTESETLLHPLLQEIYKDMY

[4] = target: T3, Peroxisome proliferator-activated receptor gamma (Mus musculus) (UniProt P37238); test: Transactivation of mouse recombinant PPARgamma expressed in mouse NIH3T3 cells by PPRE activation based dual luciferase reporter gene assay relative to control
T3 sequence (whole entry): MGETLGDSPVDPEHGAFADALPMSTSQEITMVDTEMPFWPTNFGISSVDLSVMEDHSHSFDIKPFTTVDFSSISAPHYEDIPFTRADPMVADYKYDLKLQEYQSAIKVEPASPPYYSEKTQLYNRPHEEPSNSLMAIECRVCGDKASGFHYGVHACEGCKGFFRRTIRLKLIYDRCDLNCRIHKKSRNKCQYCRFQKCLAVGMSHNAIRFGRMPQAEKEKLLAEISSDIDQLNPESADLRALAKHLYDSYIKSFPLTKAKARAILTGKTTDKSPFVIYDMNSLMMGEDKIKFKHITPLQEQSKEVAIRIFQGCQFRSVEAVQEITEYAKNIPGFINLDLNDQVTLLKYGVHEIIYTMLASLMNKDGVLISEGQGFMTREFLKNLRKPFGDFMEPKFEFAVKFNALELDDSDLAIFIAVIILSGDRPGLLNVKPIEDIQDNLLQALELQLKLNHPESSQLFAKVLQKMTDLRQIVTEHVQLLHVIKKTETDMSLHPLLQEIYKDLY

Row | Compound | Activity [1] | Activity [2] | Activity [3] | Activity [4]
1 | CCCCCCCCCCCCCC[C@H](O)[C@@H](O)[C@H](CO)NC(=O)[C@H](Cc1ccccc1)NC(=O)OC(C)(C)C | Active | Active | Dose-dependent effect | Active
2 | Cc1cccc(Nc2cc(Cl)nc(SCC(=O)O)n2)c1C | – | Active | – | –
3 | CCCCCCCCCCCCCC[C@@H](O)[C@H](O)[C@@H](CO)NC(=O)[C@H](Cc1ccccc1)NC(=O)OC(C)(C)C | Active | Active | Dose-dependent effect | Active
4 | CC1(COc2ccc(CC3SC(=O)NC3=O)cc2)CCCCC1 (centres undefined) | – | – | – | Active

More lines, now with the values ahead:

Row | Activity [1] | Activity [2] | Activity [3] | Activity [4] | Compound
5 | Active | Active | Dose-dependent effect | Active | CCCCCCCCCCCCCC[C@H](O)[C@H](O)[C@@H](CO)NC(=O)[C@H](Cc1ccccc1)NC(=O)OC(C)(C)C
6 | Active | – | Dose-dependent effect | Active | CCCCCCCCCCCCCC[C@@H](O)[C@H](O)[C@H](CO)NC(=O)CCCCCCCCCCCCC
7 | – | – | – | Active | CCCCCCCCCCCCCC[C@@H](O)[C@@H](O)[C@@H](CO)NC(=O)CBr
8 | Active | – | Dose-dependent effect | Active | CCCCCCCCCCCCCC[C@@H](O)[C@@H](O)[C@@H](CO)NC(=O)CCCCCCCCCCCCC
9 | Active | – | Dose-dependent effect | Active | CCCCCCCCCCCCCC[C@H](O)[C@H](O)[C@H](CO)NC(=O)CCCCCCCCCCCCC
